Test results taken from patent US6914066B2, “1,2-annelated quinoline derivatives” (Janssen Pharmaceutica N.V., priority 1998, dated 2005).
Counter-ions that a name gives are not always drawn.

| SMILES | melting point |
| --- | --- |
| Cn1cncc1C(OCCO)(c1ccc(Cl)cc1)c1ccc2c(c1)c(-c1cccc(Cl)c1)cc1nnnn12 (centres unmarked) (hydrate or solvate) [Comp 41] | 150 °C |
| Cn1cncc1C(NO)(c1ccc(Cl)cc1)c1ccc2c(c1)c(-c1cccc(Cl)c1)cc1cnnn12 (centres unmarked) [Comp 98] | 191 °C |
| CNCC(=O)NC(c1ccc(Cl)cc1)(c1ccc2c(c1)c(-c1cccc(Cl)c1)cc1nnnn12)c1cncn1C (centres unmarked) [Comp 121] | 224 °C |
| CNc1ncc(C(c2ccc(Cl)cc2)c2ccc3c(c2)c(-c2cccc(Cl)c2)cc2nnnn23)n1C (centres unmarked) [Comp 49] | 206 °C |
| Cn1cncc1C(N)(c1ccc(Cl)cc1)c1ccc2c(c1)c(-c1cccc(Cl)c1)c(C(N)=O)c1nnnn12 (centres unmarked) [Comp 77] | > 250 °C |
| Fc1ccc(C(c2ccc3c(c2)c(-c2ccccc2)cc2nccn23)n2ccnc2)cc1 (racemic) (hydrate or solvate) [Comp 3, (±)-7-[(4fluorophenyl)(1H-imidazol-1-yl)methyl]-5-phenylimidazo[1,2-a]quinoline ethanedioate(2:3).hemihydrate] | 204.3 °C |
| Cn1cncc1C(N)(c1ccc(Cl)cc1)c1ccc2c(c1)c(-c1cccc(Cl)c1)cc1nnnn12 (centres unmarked) [Comp 27] | 172 °C |
| Cn1cncc1C(c1ccc(Cl)cc1)c1ccc2c(c1)c(-c1cccc(Cl)c1)cc1nnnn12 (centres unmarked) [Comp 94] | 166 °C |
| CCOC(=O)c1cn2c(cc(-c3cccc(Cl)c3)c3cc(C(O)(c4ccc(Cl)cc4)c4cncn4C)ccc32)n1 (centres unmarked) [Comp 95] | 143 °C |
| Cn1cncc1C(N)(c1ccc(Cl)cc1)c1ccc2c(c1)c(-c1cccc(Cl)c1)cc1nnnn12 (centres unmarked) [Comp 28] | 180 °C |
| CNC(c1ccc(Cl)cc1)(c1ccc2c(c1)c(-c1cccc(Cl)c1)cc1nnnn12)c1cncn1C (centres unmarked) [Comp 48] | 167 °C |
| O=c1[nH]nc2cc(-c3ccccc3)c3cc(C(c4ccc(Cl)cc4)n4ccnc4)ccc3n12 (racemic) (hydrate or solvate) [Comp 7, (±)-7-[(4-chlorophenyl)-1H-imidazol-1-ylmethyl]-5-phenyl[1,2,4]triazolo[4,3-a]quinolin-1(2H)-one ethanedioate(1:1).hemihydrate] | 198.3 °C |

Now from value to compound:

| melting point | SMILES |
| --- | --- |
| 139 °C | Cn1cncc1C(O)(c1ccc(Cl)cc1)c1ccc2c(c1)c(-c1cccc(Cl)c1)nc1nnnn12 (racemic) [Comp 29, (±)-5-(3-chlorophenyl)-α-(4-chlorophenyl)-α-(1-methyl-1H-imidazol-5-yl)tetrazolo[1,5-a]quinazoline-7-methanol] |
| > 280 °C | Cn1cncc1C(O)(c1ccc(Cl)cc1)c1ccc2c(c1)c(-c1cccc(Cl)c1)c(CO)c1nnnn12 (centres unmarked) (as salt: hydrochloride) [Comp 82] |
| 235 °C | CN1c2nnnn2-c2ccc(C(O)(c3ccc(Cl)cc3)c3cncn3C)cc2C1c1cccc(Cl)c1 (racemic) [Comp 33, (±)-5-(3-chlorophenyl)-α-(4-chlorophenyl)-4,5-dihydro-4methyl-α-(1-methyl-1H-imidazol-5-yl)tetrazolo[1,5-a]quinazoline-7-methanol] |
| 212 °C | Cn1cncc1C(O)(c1ccc(Cl)cc1)c1ccc2c(c1)C(c1cccc(Cl)c1)Nc1nnnn1-2 (racemic) [Comp 30, (±)5-(3-chlorophenyl)-α-(4-chlorophenyl)4,5-dihydro-α-(1-methyl-1H-imidazol-5-yl)tetrazolo[1,5-a]quinazoline-7-methanol] |
| > 260 °C | Cn1cncc1C(O)(c1ccc(Cl)cc1)c1ccc2c(c1)c(-c1cccc(Cl)c1)c(C(=O)O)c1nnnn12 (centres unmarked) (as salt: hydrochloride) [Comp 53] |
| > 250 °C | Cn1cncc1C(O)(c1ccc(Cl)cc1)c1ccc2c(c1)c(-c1cccc(Cl)c1)c(C(N)=O)c1nnnn12 (centres unmarked) [Comp 80] |
| 222 °C | Cn1cncc1C(O)(c1ccc(Cl)cc1)c1ccc2c(c1)c(-c1cccc(Cl)c1)cc1cnnn12 (racemic) [Comp 26, (±)-5-(3-chlorophenyl)-α-(4-chlorophenyl)-α-(1-methyl-1H-imidazol-5-yl)-[1,2,3]triazolo[1,5-a]quinoline-7-methanol] |
| 159 °C | Cn1cncc1C(N)(c1ccc(Cl)cc1)c1ccc2c(c1)c(-c1cccc(Cl)c1)nc1nnnn12 (racemic) [Comp 32, (±)-5-(3-chlorophenyl)-α-(4-chlorophenyl)-α-(1-methyl-1H-imidazol-5-yl)tetrazolo[1,5-a]quinazoline-7-methanamine] |
